Test results as given in publication PMC4977052, “On the Utility of ToxCast™ and ToxPi as Methods for Identifying New Obesogens” (Environmental Health Perspectives, 2016).
Like-named read-outs stand apart in the source and are kept apart here.

What was measured:
GAL4-hRXRα = molecular target: T1, GAL4-hRXRα (Homo sapiens, UniProt P19793); assay: GAL4-hRXRα activation, transient transfection luciferase reporter in COS7 cells; assay type: cell-based; conditions: COS7, 100 μM through 0.137 μM
T1 construct: expressed in transfected cells; host or cells: COS7
T1 sequence (P19793 with tags, fused parts or gaps limits assumed): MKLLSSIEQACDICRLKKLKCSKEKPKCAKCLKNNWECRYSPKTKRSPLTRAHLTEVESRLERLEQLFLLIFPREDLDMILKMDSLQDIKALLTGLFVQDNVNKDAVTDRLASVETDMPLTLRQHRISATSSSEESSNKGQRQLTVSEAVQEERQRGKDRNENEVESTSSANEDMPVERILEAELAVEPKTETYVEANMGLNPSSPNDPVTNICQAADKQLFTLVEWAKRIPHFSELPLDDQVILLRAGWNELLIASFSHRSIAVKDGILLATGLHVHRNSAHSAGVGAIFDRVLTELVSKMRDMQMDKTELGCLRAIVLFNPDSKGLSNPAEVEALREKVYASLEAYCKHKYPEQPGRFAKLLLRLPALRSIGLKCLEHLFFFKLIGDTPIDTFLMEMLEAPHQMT
Protocol: (§1) pCMX-Gal4, pCMX-Gal4-mPPARγ, and pCMX-Gal4-hRXRα were previously described ([Grün et al. 2006]). Transient transfections were performed in COS7 cells as described ([Chamorro-García et al. 2012]). Briefly, COS7 cells were seeded at 15,000 cells per well in 96-well tissue culture plates in 10% calf bovine serum. The following day, cells were transfected in Opti-MEM at ~ 90% confluency. One microgram of CMX-GAL4 effector plasmid was co-transfected with 5 μg tk-(MH100)4-luciferase reporter and 5 μg of CMX-β-galactosidase transfection control plasmids in Opti-MEM® using Lipofectamine® 2000 reagent (Invitrogen™ Life Technologies, Carlsbad, CA, USA), following the manufacturer’s recommended protocol. All chemicals were solvated in dimethyl sulfoxide (DMSO). After overnight incubation, the medium was replaced with Dulbecco’s Modified Eagle Medium (DMEM; HyClone, Logan, UT, USA), 10% resin charcoal stripped fetal bovine serum (FBS) plus ligands at concentrations indicated in the figure legends for an additional 24 hr. DMSO concentration was maintained at 0.05% across all chemical treatments. Cells were lysed and assayed for luciferase and β-galactosidase activity as previously described ([Forman et al. 1995]). All transfections were performed in triplicate and reproduced in multiple experiments. Data are reported as fold induction or reduction over vehicle ([…]) controls ± SEM (standard error of the mean) using standard propagation of error ([Bevington and Robinson 2003]). […] The EC50, EC10, IC50, and IC10 values from NCGC and ToxCast™ are reported from gain AC50 and AC10 values in the ToxCast™ 2014 release ([Filer et al. 2014]).
(§2) Figure 4 ToxPi Chemical Activity on PPARγ and RXRα. The ability of a graded dose series of ToxPi chemicals to activate (A) GAL4-mPPARγ or (B) GAL4-hRXRα was tested in transiently transfected COS7 cells. (A, B) Data points are averages of triplicate transfections (three biological replicates). […] ToxPi chemicals were tested in 3-fold serial dilutions from 100 μM through 0.137 μM, with the final data point being 0.05% DMSO. Data are depicted as fold induction over vehicle (0.05% DMSO) controls ± SEM. (A) Rosiglitazone serves as a positive control activator for GAL4-mPPARγ. (B) LG100268 (2-[1-(3,5,5,8,8-Pentamethyl-5,6,7,8-tetrahydro-2-naphthyl)cyclopropyl]pyridine-5-carboxylic acid) serves as a positive control activator for GAL4-hRXRα. (C) EC50 and EC10 values calculated from A and B are reported and compared to other assays (see Figure S1). ATG, Attagene GAL-PPARγ or GAL-RXRα activation assay; NCGC, GeneBLAzer® GAL-PPARγ or GAL-RXRα activation assays. Triphenyltin was previously published ([Kanayama et al. 2005]).

PPARγ [1] = test system: PPARγ; design: method as in Filer et al. 2014; conditions: ref Filer et al. 2014, cited from earlier work
COS7 cells = assay: Cytotoxicity in transfected COS7 cells measured as decreased β-galactosidase activity; conditions: transfected COS7 cells, 24 hr
Protocol: as §1
(§3) Figure 1 ToxCast™ Chemical Activity on PPARγ. The ability of a graded dose series of ToxCast™ chemicals to (A) activate or (B) antagonize GAL4-mPPARγ was tested in transiently transfected COS7 cells. (A, B) Data points are averages of triplicate transfections (three biological replicates). […] Data are depicted as (A) fold induction or (B) reduction over vehicle (0.05% DMSO) controls ± SEM. (A) ToxCast™ chemicals were tested in 3-fold serial dilutions from 100 μM through 0.137 μM, with the final data point being 0.05% DMSO. Rosiglitazone serves as a positive control activator. (B) ToxCast™ chemicals were tested in 3-fold serial dilutions from 100 μM, in competition with 50 nM rosiglitazone (Rosi). […] (C) EC50, EC10, IC50, and IC10 values calculated from A and B are reported and compared to commercial assays (see Figure S1). Note: ATG, Attagene GAL-PPARγ activation assay; NCGC, GeneBLAzer® agonist (EC values) or antagonist (IC values) assays. Triphenyltin was previously published ([Kanayama et al. 2005]).

GAL4-mPPARγ [2] = molecular target: T2, GAL4-mPPARγ (Mus musculus, UniProt P37238); assay: GAL4-mPPARγ activation, transient transfection luciferase reporter in COS7 cells; assay type: cell-based; conditions: COS7, 100 μM through 0.137 μM
T2 construct: expressed in transfected cells; host or cells: COS7
T2 sequence (P37238 with tags, fused parts or gaps limits assumed): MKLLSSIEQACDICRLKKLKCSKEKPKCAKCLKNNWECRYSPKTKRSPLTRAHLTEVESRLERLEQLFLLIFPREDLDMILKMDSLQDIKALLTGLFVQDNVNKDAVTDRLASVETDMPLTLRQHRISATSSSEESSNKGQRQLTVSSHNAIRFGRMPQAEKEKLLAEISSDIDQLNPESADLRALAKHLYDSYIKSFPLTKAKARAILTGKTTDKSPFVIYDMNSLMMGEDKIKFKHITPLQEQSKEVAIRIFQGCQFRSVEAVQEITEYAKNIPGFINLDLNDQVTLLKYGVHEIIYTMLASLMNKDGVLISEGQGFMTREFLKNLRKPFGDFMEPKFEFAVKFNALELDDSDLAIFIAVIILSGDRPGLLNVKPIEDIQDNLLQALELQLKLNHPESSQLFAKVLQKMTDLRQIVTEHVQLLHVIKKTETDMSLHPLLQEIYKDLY
Protocol: as §1, §3, §2

Human PPARγ = conditions: cited from earlier work
PPARγ [3] = conditions: cited from earlier work
GAL4-mPPARγ [4] = molecular target: T2, GAL4-mPPARγ; assay: GAL4-mPPARγ antagonism in competition with 50 nM rosiglitazone, transiently transfected COS7 cells; assay type: cell-based
Protocol: as §1, §3

3T3-L1 preadipocytes = assay: 3T3-L1 adipogenesis assay (lipid accumulation, adipogenic gene expression); assay type: cell-based; conditions: 0.02-20 μM, 5 days after MDI induction
Protocol: 3T3-L1 cells (ATCC) were maintained in high-glucose DMEM supplemented with 10% fetal bovine serum, 2 mM L-glutamine, 50 IU/mL penicillin, and 50 μg/mL streptomycin. A total of 2 × 10^4 cells per well were seeded in 12-well plates. After 48 hr, cells were exposed to the adipogenic cocktail MDI (500 μM isobutylmethylxanthine, 0.25 nM dexamethasone and 5 μg/mL insulin), 8 μg/mL biotin and 8 μg/mL pantothenate for 2 days. Induction media was removed and cells were exposed to test chemicals during 5 days, replacing the media every 2 days. Rosiglitazone (ROSI) and tributyltin (TBT) were used as positive controls at 100 nM and 50 nM final concentrations, respectively. All ToxCast™ chemicals were tested at 0.02, 0.2, 2, and 20 μM, and DMSO concentration was maintained at 0.1% across all treatments. If the chemical was toxic at 20 μM, we repeated the experiment at 10 μM.
Cells were either fixed in 3.7% formaldehyde in phosphate-buffered saline (PBS) for 30 min at room temperature (RT) for lipid quantitation, or homogenized in TriPure (Roche, Mannheim, Germany) for gene expression analysis. For lipid quantitation, fixed cells were washed twice with PBS and maintained in PBS overnight at 4°C to release residual phenol red. Background of cells were measured prior to staining. Cells were stained with 1 μg/mL Nile red (CAS No. 7385-67-3) (to detect lipid accumulation) and 1 μg/mL Hoechst 33342 (ThermoFisher Scientific) (to detect nuclei as a surrogate for cell number) in PBS for 15 min in the dark at RT and washed twice with PBS. […] Background values of Hoechst and Nile red were subtracted from the RFUs after staining and the ratio RFUNile Red:RFUHoechst was calculated. Data are represented as mean ± SEM. Total RNA was isolated using TriPure (Roche) as recommended by the manufacturer. Reverse transcription and quantitative real-time RT-PCR (QPCR) were performed using Transcriptor RT and SYBR® Green Master Mix (Roche). cDNA was quantitated in a LightCycler® 480 System (Roche Diagnostics, Basel, Switzerland) using primer sets listed in Table S4. Each primer set amplified a single band as determined by gel electrophoresis and melting curve analysis. QPCR data were analyzed using the 2^ΔΔCt method ([Livak and Schmittgen 2001]) relative to ribosomal protein 36b4, normalizing to 0.1% DMSO vehicle. Error bars represent the SEM from four to six biological replicates calculated using standard propagation of error ([Bevington and Robinson 2003]).

PPARγ [5] = conditions: ToxCast 2014 release, ref Filer et al. 2014, cited from earlier work

O=C(O)COc1ccc(Cl)cc1Cl [2,4-D, 2,4-dichlorophenoxyacetic acid]
Activation of RXRα (GAL4-hRXRα): inactive

CCc1cccc(CC)c1N(COC)C(=O)CCl [Alachlor]
PPARγ antagonists: IC10, NCGC (PPARγ [1]; AC10, ToxCast 2014 release): 0.15 µM
AC50 (PPARγ [1]; PPARγ, NA = not active, read-out: NCGC Antag. AC50, 2014 Release): 3.2 µM
IC50 (PPARγ [1]; read-out: PPARγ antagonists: IC50, NCGC, gain AC50, ToxCast 2014 release): 3.19 µM
Concentration at which cytotoxicity (decreased β-galactosidase activity) was observed (COS7 cells): 100 µM
Activation of GAL4-PPARγ (text) (GAL4-mPPARγ [2]): did not activate PPARγ
AC50 (Human PPARγ; PPARγ direct binding, NA = not active, ref Filer et al. 2014, read-out: NVS Agonist AC50, 2014 Release): 24.9 µM
AC50 (Human PPARγ; PPARγ direct binding, NA = not active, ref Knudsen et al. 2011, read-out: NVS Agonist AC50, 2011 Release): 43 µM
AC50 (PPARγ [3]; PPARγ, NA = not active, ref Filer et al. 2014, read-out: ATG Agonist AC50, 2014 Release): 2 µM
AC50 (PPARγ [3]; PPARγ, NA = not active, ref Knudsen et al. 2011, read-out: ATG Agonist AC50, 2011 Release): 3.7 µM
AC50 (GAL4-mPPARγ [4]; Activation AC50 (PPARγ antagonists), Cos-7 transient transfection, competition with 50 nM rosiglitazone): 4.48 µM
Antagonism of PPARγ (GAL4-mPPARγ [4]; COS7, competition against 50 nM rosiglitazone): weak antagonists
IC50 (GAL4-mPPARγ [4]; COS7, in competition with 50 nM rosiglitazone): 4.48 µM
PPARγ antagonists: IC10, Fig 1B (GAL4-mPPARγ [4]; COS7, in competition with 50 nM rosiglitazone, computed from IC50): 0.78 µM
Activation COS7 (result in words): PPARγ antagonist (GAL4-mPPARγ [4]; Cos-7 transient transfection, competition with 50 nM rosiglitazone): PPARγ antagonist
Adipogenesis 3T3-L1 (result in words) (3T3-L1 preadipocytes): Negative

CCNc1nc(Cl)nc(NC(C)C)n1 [Atrazine]
Activation of GAL4-PPARγ (text) (GAL4-mPPARγ [2]): inactive
AC50 (Human PPARγ; direct binding, ToxCast 2014 release, ref Filer et al. 2014, read-out: NovaScreen AC50 (panel A)): 0.3 µM
AC50 (Human PPARγ; direct binding, ToxCast 2014 release, ref Filer et al. 2014, read-out: NovaScreen AC50 (panel B)): 0.3 µM
AC50 (PPARγ [3]; ToxCast 2014 release, ref Filer et al. 2014, read-out: Attagene AC50 (panel A, w/o Z-Score Correction ranking)): 15.2 µM
AC50 (PPARγ [3]; ToxCast 2014 release, ref Filer et al. 2014, read-out: Attagene AC50 (panel B, with Z-Score Correction ranking)): 15.2 µM
Activation of RXRα (GAL4-hRXRα): inactive
AC50 (PPARγ [5]; read-out: Tox21/NCGC AC50 (panel A)): 0.2 µM
AC50 (PPARγ [5]; read-out: Tox21/NCGC AC50 (panel B)): 0.2 µM
